In patent publication US20150141248A1, “ANTIFUNGAL COMPOSITIONS” (DSM IP ASSETS B.V., priority 2011, published 2015):

Experiments:
Fusarium proliferatum [1] = assay: Treatment of wounded bananas inoculated with Fusarium proliferatum (mould growth); type: in vivo; settings: for Number of moulded wounds/total number of 12 wounds: bananas 20° C.; for Observed antifungal activity O: bananas
Procedure: Four organic, unripe (green) bananas were used per treatment. The peel of each banana was wounded thrice using a cork borer according to the method described by de Lapeyre de Bellaire and Dubois (1987). Subsequently, each wound was inoculated with 15 μl of a Fusarium proliferatum suspension containing 1×10^5 of spores/ml. […] In addition, the antifungal compositions comprised 1.00% (w/w) methylhydroxyethylcellulose (MHEC), 0.40% (w/w) xanthan gum, 0.20% (w/w) anti-foaming agent, 0.30% (w/w) citric acid, 0.39% (w/w) lactic acid and 0.11% (w/w) potassium sorbate. The pH of the composition was 4.0. […] The treated, unripe bananas were incubated in a closed box in the dark at 20° C. and a relative air humidity of 95%, which was obtained in the presence of a saturated Na2HPO4 aqueous solution. During the first 20 days of incubation, a ripe (yellow) banana was included in the closed box to elevate the ethylene gas level and thus induce ripening of the treated, unripe bananas. […]
The expected antifungal activity (E in %) of the combined antifungal composition comprising both active ingredients was calculated according to the Colby equation (Colby, 1967): […]
wherein X and Y are the observed antifungal activities (in %) of the individual active ingredients X and Y, respectively. If the observed antifungal activity (O in %) of the combination exceeds the expected antifungal activity (E in %) of the combination and the synergy factor O/E is thus >1.0, the combined application of the active ingredients leads to a synergistic antifungal effect.

Botrytis cinerea = assay: In vitro antifungal activity, 96-well microtiter plates; type: cell-based; settings: in vitro 25° C., 5 days
Procedure: The following compositions were tested: […] Subsequently, 100 μl of a Botrytis cinerea suspension prepared in PCB medium was used to inoculated each well with 2.5×10^3 spores/ml. […] The expected antifungal activity (E in %) of the active ingredient combination was calculated according to the Colby equation (Colby, 1967): […] wherein X and Y are the observed antifungal activities (in %) of the individual active ingredients X and Y, respectively.

Fusarium proliferatum [2] = assay: as above; type: cell-based; settings: in vitro 25° C., 3 days
Procedure: Subsequently, 100 μl of a Botrytis cinerea suspension prepared in PCB medium was used to inoculated each well with 2.5×10^3 spores/ml.
, the in vitro antifungal activity (%) of the individual active ingredients was assessed by calculating the reduction in mould growth observed in the presence of the active ingredient in comparison to the mould growth observed in the absence of the active ingredient. The expected antifungal activity (E in %) of the active ingredient combination was calculated according to the Colby equation (Colby, 1967): […]
The experiment was conducted as described in Example 13, except for the fact that the following compositions were tested:
Furthermore, Fusarium proliferatum was used for inoculation. The antifungal activity (in %) of the individual and combined active ingredients was determined according to the method described in Example 13.

Q: What does the source list for `CCCC1COC(Cn2cncn2)(c2ccc(Cl)cc2Cl)O1` (stereo not drawn) [Propiconazole, propiconazole]?
A: Number of moulded wounds/total number of 12 wounds (Fusarium proliferatum [1]; 50 ppm natamycin, 250 ppm propiconazole or both, Day 29): 5/12; Number of moulded wounds/total number of 12 wounds (Fusarium proliferatum [1]; 50 ppm natamycin, 250 ppm propiconazole or both, Day 29, listed as propiconazole): 5; Number of moulded wounds/total number of 12 wounds (Fusarium proliferatum [1]; 50 ppm natamycin, 250 ppm propiconazole or both, Day 32): 8/12; Number of moulded wounds/total number of 12 wounds (Fusarium proliferatum [1]; 50 ppm natamycin, 250 ppm propiconazole or both, Day 32, listed as propiconazole): 8; Number of moulded wounds/total number of 12 wounds (Fusarium proliferatum [1]; 50 ppm natamycin, 250 ppm propiconazole or both, Day 34): 10/12; Number of moulded wounds/total number of 12 wounds (Fusarium proliferatum [1]; 50 ppm natamycin, 250 ppm propiconazole or both, Day 34, listed as propiconazole): 10; Number of moulded wounds/total number of 12 wounds (Fusarium proliferatum [1]; 50 ppm natamycin, 250 ppm propiconazole or both, Day 36): 12/12; Number of moulded wounds/total number of 12 wounds (Fusarium proliferatum [1]; 50 ppm natamycin, 250 ppm propiconazole or both, Day 36, listed as propiconazole): 12; Number of moulded wounds/total number of 12 wounds (Fusarium proliferatum [1]; 50 ppm natamycin, 250 ppm propiconazole or both, Day 39): 12/12; Number of moulded wounds/total number of 12 wounds (Fusarium proliferatum [1]; 50 ppm natamycin, 250 ppm propiconazole or both, Day 39, listed as propiconazole): 12; Number of moulded wounds/total number of 12 wounds (Fusarium proliferatum [1]; 50 ppm natamycin, 250 ppm propiconazole or both, Day 42): 12/12; Number of moulded wounds/total number of 12 wounds (Fusarium proliferatum [1]; 50 ppm natamycin, 250 ppm propiconazole or both, Day 42, listed as propiconazole): 12; Number of moulded wounds/total number of 12 wounds (Fusarium proliferatum [1]; 250 ppm natamycin, 500 ppm propiconazole or both, Day 34): 10/12; Number of moulded wounds/total number of 12 wounds (Fusarium proliferatum [1]; 250 ppm natamycin, 500 ppm propiconazole or both, Day 34, listed as propiconazole): 10; Number of moulded wounds/total number of 12 wounds (Fusarium proliferatum [1]; 250 ppm natamycin, 500 ppm propiconazole or both, Day 36): 10/12; Number of moulded wounds/total number of 12 wounds (Fusarium proliferatum [1]; 250 ppm natamycin, 500 ppm propiconazole or both, Day 36, listed as propiconazole): 10; Number of moulded wounds/total number of 12 wounds (Fusarium proliferatum [1]; 500 ppm natamycin, 150 ppm propiconazole or both, Day 26): 9/12; Number of moulded wounds/total number of 12 wounds (Fusarium proliferatum [1]; 500 ppm natamycin, 150 ppm propiconazole or both, Day 26, listed as propiconazole): 9; Number of moulded wounds/total number of 12 wounds (Fusarium proliferatum [1]; 500 ppm natamycin, 150 ppm propiconazole or both, Days 27-29): 12/12; Number of moulded wounds/total number of 12 wounds (Fusarium proliferatum [1]; 500 ppm natamycin, 150 ppm propiconazole or both, Days 27-29, listed as propiconazole): 12; Number of moulded wounds/total number of 12 wounds (Fusarium proliferatum [1]; 500 ppm natamycin, 150 ppm propiconazole or both, Days 31-32): 12/12; Number of moulded wounds/total number of 12 wounds (Fusarium proliferatum [1]; 500 ppm natamycin, 150 ppm propiconazole or both, Days 31-32, listed as propiconazole): 12; Number of moulded wounds/total number of 12 wounds (Fusarium proliferatum [1]; 500 ppm natamycin, 1000 ppm propiconazole or both, Day 39): 4/12; Number of moulded wounds/total number of 12 wounds (Fusarium proliferatum [1]; 500 ppm natamycin, 1000 ppm propiconazole or both, Day 39, listed as propiconazole): 4; Number of moulded wounds/total number of 12 wounds (Fusarium proliferatum [1]; 500 ppm natamycin, 1000 ppm propiconazole or both, Day 42): 4/12; Number of moulded wounds/total number of 12 wounds (Fusarium proliferatum [1]; 500 ppm natamycin, 1000 ppm propiconazole or both, Day 42, listed as propiconazole): 4; Observed antifungal activity O (Fusarium proliferatum [1]; 50 ppm natamycin, 250 ppm propiconazole or both, 29 days): 92%; Observed antifungal activity O (Fusarium proliferatum [1]; 50 ppm natamycin, 250 ppm propiconazole or both, 32 days): 90%; Observed antifungal activity O (Fusarium proliferatum [1]; 50 ppm natamycin, 250 ppm propiconazole or both, 34 days): 85%; Observed antifungal activity O (Fusarium proliferatum [1]; 50 ppm natamycin, 250 ppm propiconazole or both, 36 days): 81%; Observed antifungal activity O (Fusarium proliferatum [1]; 50 ppm natamycin, 250 ppm propiconazole or both, 39 days): 57%; Observed antifungal activity O (Fusarium proliferatum [1]; 50 ppm natamycin, 250 ppm propiconazole or both, 42 days): 47%; Observed antifungal activity O (Fusarium proliferatum [1]; 250 ppm natamycin, 50 ppm propiconazole or both, 23 days): 36%; Observed antifungal activity O (Fusarium proliferatum [1]; 250 ppm natamycin, 50 ppm propiconazole or both, 27 days): 30%; Observed antifungal activity O (Fusarium proliferatum [1]; 250 ppm natamycin, 50 ppm propiconazole or both, 29 days): 35%; Observed antifungal activity O (Fusarium proliferatum [1]; 250 ppm natamycin, 500 ppm propiconazole or both, 34 days): 74%; Observed antifungal activity O (Fusarium proliferatum [1]; 250 ppm natamycin, 500 ppm propiconazole or both, 36 days): 62%; Observed antifungal activity O (Fusarium proliferatum [1]; 250 ppm natamycin, 500 ppm propiconazole or both, 39 days): 43%; Observed antifungal activity O (Fusarium proliferatum [1]; 250 ppm natamycin, 500 ppm propiconazole or both, 42 days): 33%; Observed antifungal activity O (Fusarium proliferatum [1]; 500 ppm natamycin, 150 ppm propiconazole or both, 27 days): 57%; Observed antifungal activity O (Fusarium proliferatum [1]; 500 ppm natamycin, 150 ppm propiconazole or both, 28 days): 56%; Observed antifungal activity O (Fusarium proliferatum [1]; 500 ppm natamycin, 150 ppm propiconazole or both, 29 days): 54%; Observed antifungal activity O (Fusarium proliferatum [1]; 500 ppm natamycin, 150 ppm propiconazole or both, 31 days): 44%; Observed antifungal activity O (Fusarium proliferatum [1]; 500 ppm natamycin, 150 ppm propiconazole or both, 32 days): 33%; Observed antifungal activity O (Botrytis cinerea; natamycin 0.63 ppm, propiconazole 1.00 ppm or both): 0%; Observed antifungal activity O (Botrytis cinerea; natamycin 1.25 ppm, propiconazole 0.50 ppm, prothioconazole 0.13 ppm, or natamycin 1.25 ppm with either): 0%; Observed antifungal activity O (Fusarium proliferatum [2]; natamycin 2.5 ppm, propiconazole 7.5 ppm or both): 0%; Observed antifungal activity O (Fusarium proliferatum [2]; propiconazole 10.0 ppm alone or with natamycin 2.5 ppm): 0%
